For 8 compounds, IC50, response vs control in vivo and melting point results are on record in US8722663B2, “Di-substituted pyridine derivatives as anticancers” (Otsuka Pharmaceutical Co., Ltd., priority 2010, dated 2014).

Counter-ions that a name gives are not always drawn.

Broadly, the IC50 is the concentration at which inhibition is half-maximal. A high value points to lower potency. The term melting point denotes the temperature, or range, at which the solid turns liquid.

In data set [1] the test system is bicalutamide resistant human prostate cancer cell line established from LNCaP.FGC (LNCaP-Bic). The data set can be described thus: Growth inhibition of LNCaP-Bic cells, WST-8 assay. The format is cell-based. The following applies: 120 h, 5 days with test compound. The procedure, abridged:
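Cells in RPMI 1640 with 10% FBS preincubated 24 h at 37 °C, 5% CO2, then exposed to compound for 5 days. WST-8 read-out, OD 450 minus 630 nm after cell-free blank subtraction; IC50 (nM) derived against untreated control growth.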
(Tetrazolium dyes change colour on reduction, which living cells bring about.)

For data set [2], the system named is human prostate (carcinoma) cell line (LNCaP.FGC). The data set can be described thus: Growth inhibition of LNCaP.FGC cells, WST-8 assay. It is filed as cell-based. The following applies: 120 h, 5 days with test compound. The method in brief: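 Bicalutamide-resistant LNCaP-Bic cells (and parental LNCaP.FGC) in RPMI 1640 + 10% FBS were preincubated 24 h at 37 °C, 5% CO2, then exposed to compound for 5 days. Growth read by WST-8, OD 450 nm minus 630 nm, cell-free blank subtracted; IC50 (nM) taken relative to untreated control.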

The subject of data set [3] is human prostate (adenocarcinoma) cell line (VcaP). In words: Growth inhibition of VcaP cells, WST-8 assay. The format is cell-based. As to conditions: 120 h, 5 days with test compound. The method in brief:
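Cells in RPMI 1640 with 10% FBS were preincubated 24 h at 37° C., 5% CO2, then exposed to compound for 5 days. Growth read by WST-8 at 450 nm minus 630 nm, cell-free background subtracted. IC50 derived relative to untreated control.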

Data set [4] deals with human prostate (carcinoma) cell line (DU 145). In words: Growth inhibition of DU 145 cells, WST-8 assay. The format is cell-based. As to conditions: 120 h, 5 days with test compound. The method in brief:
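DU 145 cells in RPMI 1640 with 10% FBS were pre-incubated 24 h at 37° C, 5% CO2, then exposed to compound for 5 days. Growth was read by WST-8 reduction (OD 450 minus 630 nm, cell-free blank subtracted). IC50 was taken relative to untreated control.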

In data set [5] the test system is human prostate (adenocarcinoma) cell line (PC-3). In words: Growth inhibition of PC-3 cells, WST-8 assay. The format is cell-based. As to conditions: 120 h, 5 days with test compound. The procedure, abridged: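 Cells seeded in RPMI 1640 with 10% FBS, grown 24 h at 37 °C, 5% CO2, then exposed to compound for 5 days. WST-8 read-out, OD 450 nm minus 630 nm reference, cell-free blank subtracted. IC50 (nM) from growth relative to compound-free control.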

The subject of data set [6] is human breast cancer cell line (MDA-MB-468). In words: Growth inhibition of MDA-MB-468 cells, sulforhodamine B method. The format is cell-based. As to conditions: 120 h, 5 days with test compound. Here is the method:
(§1) Growth inhibition of a human breast cancer cell line (MDA-MB-468) was determined by the sulforhodamine B method based on the method of Skehan P. et al. (J Natl Cancer Inst. 1990 Jul. 4; 82(13): 1107-12). In the study, MDA-MB-468 cells were seeded on DMEM medium containing 10% fetal bovine serum in a 96-well microplate. After 24-h incubation at 37° C. in the presence of 5% carbon dioxide, the test compound was added and the cells were incubated for another 5 days. After incubation, a trichloroacetic acid solution was added to yield the final concentration of 10% and the cells were left to stand at 4° C. for 1 hour to fix. Then, the cells were washed with water to remove the medium and trichloroacetic acid and dried in the air. The dried cells were stored at 4° C. until they were stained with sulforhodamine B. To each well, 1% acetic acid solution containing 0.4% sulforhodamine B was added and left to stand for 20 to 30 minutes at room temperature. After discarding the supernatant, each well was washed with 1% acetic acid solution, and 10 mM Tris([…]) solution was added while stirring to elute the dye taken into the cells. Then, the optical density was determined at the measurement wavelength of 492 nm and the reference wavelength of 690 nm, and the difference was calculated. The cell growth activity in each well was defined as the value determined by subtracting the OD in the control well not containing cells (the difference in absorbance between 492 nm and 690 nm) from that in the test well.
(§2) The 50% inhibitory concentration (IC50 (nM)) of the test compound was determined by comparing the cell growth activity in the well containing the test compound with that of the control not containing the test compound.
On the technique in general: The SRB assay estimates cell density from bound dye.

Data set [7] deals with human hepatic cancer cell line (HuH-7). The data set can be described thus: Growth inhibition of HuH-7 cells, sulforhodamine B method. It is filed as cell-based. The following applies: Homo sapiens, 120 h, 5 days with test compound. Here is the method: as §1, §2
The growth inhibition on a human hepatic cancer cell line (HuH-7) was also determined by the above method.

For data set [8], the system named is Human prostate cancer cells (LNCaP-Bic). In words: Antitumor effect on LNCaP-Bic tumors transplanted in nude mice, tumor weight. It is filed as in vivo. The following applies: Mus musculus, po, 336 h, 10 mg/kg/day orally, once daily, 14 consecutive days, read-out: T/C(%) (10 mg/kg/day), tumor weight treated/control. As for the experimental part: (§3) Human prostate cancer cells (LNCaP-Bic) were transplanted in nude mice (6 males/group) and the inhibitory effect of the invention on their growth was examined. In the study, the tumor cell suspension with matrigel was inoculated at 0.12 mL/body (2.4×10^6 cells/body) into the subcutaneous space of the right axillary region to prepare tumor bearing mice. When the tumor diameter became 5 mm or more, the animals were allocated to groups based on the tumor volume. The test compound was administered orally as a suspension in 5% gum arabic, once daily, for 14 consecutive days. The control group received 5% gum arabic. Tumor volumes were measured on the following day of the last administration. Tumors were removed and the wet weight of the tumor was measured using an electronic balance. The ratio of the tumor weight in the treated group to that in the control group (T/C %) was calculated as the index for the effect. T/C %=(Mean tumor weight in the treatment group/Mean tumor weight in the control group)×100.

Data set [9] deals with PSA. The data set can be described thus: Plasma levels of PSA in LNCaP-Bic tumor bearing nude mice, ELISA. As to conditions: Mus musculus, po, 336 h; 10 mg/kg/day orally, once daily, 14 consecutive days; plasma PSA by ELISA; read-out: T/C(%) (10 mg/kg/day), plasma levels of PSA treated/control. It is filed as in vivo. Here is the method:
as §3
The heparinized blood was collected from the postcava under diethylether anesthesia. The plasma levels of PSA were measured using ELISA. The ratio of the plasma levels of PSA in the treated group to that in the control group (T/C %) was calculated as the index for the effect. T/C %=(Mean plasma levels of PSA in the treatment group/Mean plasma levels of PSA in the control group)×100.
Background: In an ELISA, binding on a coated surface is turned into a signal by an enzyme label.

As to `Cc1cc(/C=C/C(=O)N2CCN(Cc3ccc(CCOc4ccc(C(C)C)cc4)cc3)CC2)cc(Cl)c1Oc1ccc(OCc2ccc(F)cc2)cn1` [Example 438, (E)-3-[3-Chloro-4-({5-[(4-fluorobenzyl)oxy]pyridin-2-yl}oxy)-5-methylphenyl]-1-[4-(4-{2-[4-(propan-2-yl)phenoxy]ethyl}benzyl)piperazin-1-yl]prop-2-en-1-one hydrochloride], the IC50 in data set [1] is less than 10 nM; in [2] it was less than 10 nM; in [3], less than 10 nM; in data set [4], less than 10 nM; in data set [5] it was less than 10 nM; in data set [6] it was less than 0.01 µM. Moreover, in [7], the IC50 is less than 0.01 µM. Also, the response vs control in vivo at 10 mg/kg in data set [8] and in data set [9] was less than 50% in each case.

`Cc1cc(/C=C/C(=O)N2CCN(Cc3ccc(CCOc4ccc(C(C)C)cc4)cc3)CC2)cc(Cl)c1Oc1ccc(OCc2ccccc2Cl)cn1` [Example 608, (E)-3-[3-Chloro-4-({5-[(2-chlorobenzyl)oxy]pyridin-2-yl}oxy)-5-methylphenyl]-1-[4-(4-{2-[4-(propan-2-yl)phenoxy]ethyl}benzyl)piperazin-1-yl]prop-2-en-1-one hydrochloride]: the half-maximal inhibitory concentration (IC50) in data set [1] was less than 10 nM; in [2] it was less than 10 nM; in [3], less than 10 nM; in [4], less than 10 nM; in data set [5], less than 10 nM; in [6], less than 0.01 µM. Further, in data set [7], the IC50 is less than 0.01 µM.

Regarding `Cc1ccc(COc2ccc(Oc3c(C)cc(/C=C/C(=O)N4CCN(Cc5ccc(CCOc6ccc(Cl)cc6)cc5)CC4)cc3Cl)nc2)cc1` [Example 408, (E)-3-[3-chloro-5-methyl-4-({5-[(4-methylbenzyl)oxy]pyridin-2-yl}oxy)phenyl]-1-(4-{4-[2-(4-chlorophenoxy)ethyl]benzyl}piperazin-1-yl)prop-2-en-1-one hydrochloride], the concentration for half-maximal inhibition (IC50) in data set [1] was less than 10 nM; in data set [2] it was less than 10 nM; in data set [3], less than 10 nM; in [4], less than 10 nM; in data set [5] it was less than 10 nM; in data set [6], less than 0.01 µM. Further, the IC50 in [7] was less than 0.01 µM. The response vs control in vivo at 10 mg/kg in [8] and in data set [9] was less than 50% in each case.

Turning to `Cc1cc(/C=C/C(=O)N2CCN(Cc3ccc(CCOc4ccc(F)cc4)cc3)CC2)cc(Cl)c1Oc1ccc(OCc2ccc(Cl)cc2)cn1.Cl` [Example 429, (E)-3-[3-Chloro-4-({5-[(4-chlorobenzyl)oxy]pyridin-2-yl}oxy)-5-methylphenyl]-1-(4-{4-[2-(4-fluorophenoxy)ethyl]benzyl}piperazin-1-yl)prop-2-en-1-one hydrochloride], the melting point was in the range of 224.4 to 228.8 °C. Moreover, the half-inhibitory concentration (IC50) in [1] was less than 10 nM. The IC50 in [2] was less than 10 nM. This compound also gave an IC50 in data set [3] of less than 10 nM. Moreover, the concentration for half-maximal inhibition (IC50) in [4] is less than 10 nM. The compound further yielded a half-inhibitory concentration (IC50) in data set [5] of less than 10 nM. Besides, the response vs control in vivo at 10 mg/kg in data set [8] was less than 50%. In addition, the response vs control in vivo at 10 mg/kg in [9] is less than 50%.

For the compound `Cc1cc(/C=C/C(=O)N2CCN(Cc3ccc(CCOc4ccc(Cl)cc4)cc3)CC2)cc(C)c1Oc1ccc(OCc2ccc(C#N)cc2)cn1.Cl` [Example 558, 4-{[(6-{4-[(E)-3-(4-{4-[2-(4-Chlorophenoxy)ethyl]benzyl}piperazin-1-yl)-3-oxoprop-1-en-1-yl]-2,6-dimethylphenoxy}pyridin-3-yl)oxy]methyl}benzonitrile hydrochloride], the melting point is 219.7 to 220.7 °C. Further, the IC50 in data set [1] is less than 10 nM. The compound further gave an IC50 in data set [2] of less than 10 nM. For the same compound, the IC50 in data set [3] was less than 10 nM. This compound also returned an IC50 in data set [4] of less than 10 nM. Moreover, the half-maximal inhibitory concentration (IC50) in data set [5] was less than 10 nM. For the same compound, the concentration for half-maximal inhibition (IC50) in data set [7] was less than 0.01 µM.

`Cc1ccccc1COc1ccc(Oc2c(C)cc(/C=C/C(=O)N3CCN(Cc4ccc(CCOc5ccc(F)cc5)cc4)CC3)cc2Cl)nc1.Cl` [Example 448, (E)-3-[3-Chloro-5-methyl-4-({5-[(2-methylbenzyl)oxy]pyridin-2-yl}oxy)phenyl]-1-(4-{4-[2-(4-fluorophenoxy)ethyl]benzyl}piperazin-1-yl)prop-2-en-1-one hydrochloride]: the melting point was 210.3 to 210.6 °C. Also, the IC50 in data set [1] is less than 10 nM. For the same compound, the IC50 in [2] was less than 10 nM. Further, in data set [3], the 50% inhibitory concentration (IC50) is less than 10 nM. In addition, the half-inhibitory concentration (IC50) in [4] was less than 10 nM. The compound also showed a concentration for half-maximal inhibition (IC50) in data set [5] of less than 10 nM. The compound also had a 50% inhibitory concentration (IC50) in [6] of less than 0.01 µM. Besides, the IC50 in [7] was less than 0.01 µM.

`COc1ccc(OCCc2ccc(CN3CCN(C(=O)/C=C/c4cc(C)c(Oc5ccc(OCc6ccc(C)cc6)cn5)c(Cl)c4)CC3)cc2)cc1.Cl` [Example 440, (E)-3-[3-Chloro-5-methyl-4-({5-[(4-methylbenzyl)oxy]pyridin-2-yl}oxy)phenyl]-1-(4-{4-[2-(4-methoxyphenoxy)ethyl]benzyl}piperazin-1-yl)prop-2-en-1-one hydrochloride] showed a melting point of 225.1 to 226.6 °C. In addition, in [1], the IC50 was less than 10 nM. Also, the concentration for half-maximal inhibition (IC50) in data set [2] was less than 10 nM. Besides, the half-maximal inhibitory concentration (IC50) in data set [3] is less than 10 nM. In data set [4], this compound came in with an IC50 of less than 10 nM. The IC50 in data set [5] is less than 10 nM. For the same compound, the response vs control in vivo at 10 mg/kg in data set [8] was less than 50%. In data set [9], the response vs control in vivo at 10 mg/kg is less than 50%.

The compound `Cc1cc(/C=C/C(=O)N2CCN(Cc3ccc(CCOc4ccc(C(C)C)cc4)cc3)CC2)cc(Cl)c1Oc1ccc(OCc2ccccc2F)cn1.Cl` [Example 454, (E)-3-[3-Chloro-4-({5-[(2-fluorobenzyl)oxy]pyridin-2-yl}oxy)-5-methylphenyl]-1-[4-(4-{2-[4-(propan-2-yl)phenoxy]ethyl}benzyl)piperazin-1-yl]prop-2-en-1-one hydrochloride] gave a melting point of 188 to 189.5 °C. The IC50 in [1] is less than 10 nM. This compound had a half-maximal inhibitory concentration (IC50) in data set [2] of less than 10 nM. In data set [3], this compound showed an IC50 of less than 10 nM. In data set [4], this compound returned an IC50 of less than 10 nM. Further, the 50% inhibitory concentration (IC50) in data set [5] was less than 10 nM. For the same compound, the concentration for half-maximal inhibition (IC50) in data set [6] was less than 0.01 µM. The compound also showed a concentration for half-maximal inhibition (IC50) in [7] of less than 0.01 µM.
